pKi: −log10 of the molar value. Activity calls are given as the source filed them. No cut-off for these calls is given here.
Assays:
[1] = Compound was evaluated for inhibition of Van X at pH 7.0
[2] = tested on: Stenotrophomonas maltophilia; assay: Tested for inhibitory activity against metallo-beta-lactamase L1 from Stenotrophomonas maltophilia at compound concentration up to […] at pH 7.0 using nitrocefin as substrate; No inhibition; assay type: functional
[3] = Compound was evaluated for inhibition of Van X at pH 7.0; No inhibition
[4] = Compound was evaluated for inhibition of Van X

| SMILES | pKi [1] | Activity [2] | Ki [3] | Kis [4] [µM] |
| --- | --- | --- | --- | --- |
| CC(NP(=O)(O)C(C)N)C(=O)O (configuration not stated) | 4.44 | inactive | – | – |
| CC(N)P(=O)(O)SCC(=O)O (configuration not stated) | – | inactive | Not Active | – |
| CC(OP(=O)(O)C(C)N)C(=O)O (configuration not stated) | 3.40 | inactive | – | – |
| CC(C[PH](=O)C(C)N)C(=O)O (configuration not stated) | – | – | – | 0.32 |
